Test results reported in PMC6425991, “Peptide Super-Agonist Enhances T-Cell Responses to Melanoma” (Frontiers in Immunology, 2019).
Where “and” joins values, the source holds several entries; their conditions need not be identical. Equal values may be shown once.

Assays:
HLA A2 = target: T1, HLA A2 (Homo sapiens, UniProt P04439, D140Y/D185E/D98H/E176V/E277Q/G131W/G231S/I119V/I121R/I166T/I218V/L300P/L318F/N151K/N90K/P208A/P217A/Q86G/Q94H/R138H/R169H/T345S); type: binding
T1 construct: T2 cells (TAP deficient HLA A2^+) were incubated overnight in serum-free media; endogenous in cells; host or cells: T2 cells

MM909.24 TIL = test: Intracellular cytokine staining (IFNγ) of TIL infusion product; type: cell-based, human; settings: T2 cells as antigen presenting cells, 5 h, peptide 10^−5-10^−12 M
Description: Cells were then washed and stained with violet Live/Dead fixable dead cell stain, VIVID (Life Technologies, Paisley, UK) and for surface markers with anti-CD3 peridinin chlorophyll protein (PerCP) (clone BW264/56, Miltenyi Biotech, Bergisch Gladbach, Germany) and anti-CD8 allophycocyanin (APC)-Vio770 (clone BW135/80, Miltenyi Biotech) antibodies. Cells were prepared for ICS by incubating with Cytofix/Cytoperm™ (BD Biosciences), according to manufacturer's instructions, before staining for 20 min on ice with anti-IFNγ APC antibody (clone 45-15, Miltenyi Biotech). Cells were resuspended in FACS buffer (PBS supplemented with 2% FBS) before acquisition on BD FACS Canto II (BD Biosciences). Data was analysed using FlowJo Software (TreeStar, Ashland, OR, USA).

CD8 T-cell clone ST8.24 = test: Peptide activation assay, MIP-1β ELISA; type: cell-based, human; settings: overnight, T2 cells, peptide titration
Description: T-cell clones were cultured in R5 for 24 h prior to assay to reduce spontaneous activation. Assays were performed overnight in R5 in 96 U well plates with 3 × 10^5 T-cells and 6 × 10^5 T2 cells with and without desired peptides. The following day, supernatants were harvested, diluted with 70 μL R0 (R10 but without serum) and a half-area-well MIP-1β Enzyme-linked Immunosorbent Assay (ELISA) was carried out as per the manufacturer's instructions (R&D Systems, Minneapolis, MN). A decamer combinatorial peptide library (Pepscan Presto BV, Lelystad, The Netherlands) was stored and used as previously described ([19]). Individual peptides were synthesised to ≥95% purity (GL Biochem, Shanghai, China, or Peptide Protein Research Ltd, Hampshire, UK) stored at −80°C. […] Polyclonal T-cell populations were cultured overnight in R5 in order to reduce spontaneous activation. The following day an IFNγ Enzyme-Linked ImmunoSpot (ELISpot) assay was performed, using Multiscreen plates® (Millipore, Massachusetts, MA) as per the manufacturers' instructions (Mabtech, Nacka Strand, Sweden). 5 × 10^4 T-cells were screened against 10 candidate super-agonist peptides (described previously) at a concentration range of 10^−4 to 10^−8 mM. ELISpot data was collected using an ImmunoSpot® plate reader (CTL, Shaker Heights, Ohio, OH).

[1] = test system: CD8 T-cells of healthy donors; settings: cited from earlier work
Source text: Analysis of T-cells that responded to autologous tumour within the TIL infusion product used to cure an HLA A2^+ stage IV melanoma patient (code MM909.24), and also in the blood 6 months post cure, identified several persistent TCR clonotypes ([16], [17]). […] […]. Alteration of TCR contact residues has the advantage that the resultant APL are highly likely to be viewed as “nonself” and may therefore have increased potential for breaking immune tolerance. […]. PS-CPL have been explored as a way of selecting such “mimitopes” ([19], [33], [50]). This approach ...

Row | Sequence | MFI of HLA A2 expression (HLA A2) | IFNγ production by TIL infusion product (MM909.24 TIL) | activation of clone ST8.24 (MIP-1β ELISA) (CD8 T-cell clone ST8.24) | healthy donors in which the peptide induced greater CD8 T-cell responses [1]
1 | DRASFIKNL | 197 and 191 and 182 and 211 and 183 and 188 | – | – | –
2 | FATGIGIITV [super-agonist peptide of clone MEL5 from the authors' previous work] | – | failed to induce IFNγ production | failed to activate | 6 of 10
3 | HPVGEADYFEY | 183 and 202 and 199 and 159 and 231 | – | – | –
